The values that follow are results of earlier work, collected in patent publication US20240016871A1, “Non-toxic furocoumarin-rich plant extracts and related compositions for use as antimicrobial substance or medicament and other therapeutic uses” (ICE-P LIFE, S.L., priority 2020, published 2024).

The subject of data set [1] is p53 knockout mouse. The conditions noted are these: platelets treated with amotosalen, after filtration and removal of amotosalen conjugated with pathogens.
Data set [2] relates to DBA/2 strain mice. The conditions noted are these: single oral doses.

For the molecule `Cc1oc2c(C)c3oc(=O)cc(C)c3cc2c1COCCN.Cl` [amotosalen, amotosalen HCl], the carcinogenicity result in data set [1] was “non-carcinogenic”.
`O=c1ccc2ccccc2o1` [coumarin]: the liver necrosis result in data set [2] is listed as “produce liver necrosis”.
